Assay type in all cases: cell-based
Assay [1] deals with HCT116^MTAP Deletion cells. The experiment in a line: Anti-proliferation assay on cells (CTG, 10 days), HCT116 MTAP Deletion. The following applies: anti-proliferative activity, HCT116 MTAP Deletion, 10 days, class symbols, read-out: HCT116^MTAP Deletion GI50. On the procedure: (§1) HCT116^MTAD Deletion cells were from Pharmaron (China); HCT116 cells were from ATCC; McCoy's 5A medium was purchased from Invitrogen (USA); penicillin-streptomycin and fetal bovine serum were purchased from Gibco (USA); a 384-well plate was purchased from PerkinElmer (USA); and Cell-Titer Glo reagent was purchased from Promega (USA).
(§2) Compound dissolution: All the compounds were dissolved in dimethyl sulfoxide (DMSO) and then stored. The compounds were stored at room temperature in a dry condition for 3 months for short term storage or at −20 °C for long term storage.
(§3) The cells were cultured strictly in accordance with ATCC requirements. The cell culture medium (McCoy's 5A medium+10% fetal bovine serum+1% penicillin+streptomycin) was transferred to a 15 mL centrifuge tube and centrifuged at 1000 rpm for 5 min. The supernatant was removed. The cells were resuspended with complete culture medium, inoculated into a culture dish at the required density, and cultured in an incubator at 37 °C, 95% humid air, and 5% carbon dioxide. The culture medium was replenished or the cells were passaged every 2-3 days depending on the cell growth condition.
(§4) When the confluency of cells in the culture dish reached about 90%, the cells were washed twice with PBS, and then treated with trypsin to become single cells. The cells were counted, and 40 μl of the cells was inoculated into each well of a 384-well plate (50 cells/well). The plate was equilibrated at 37 °C and 5% carbon dioxide for 10 to 15 minutes. The compounds were injected into the 384-well plate using Echo550, and positive control and negative control (0.1% DMSO) were set up. Each compound was subjected to a 3-fold dilution, resulting in 10 concentration gradients, in duplicate, and the content of DMSO was 0.1%. The 384-well plate was incubated in a cell culture incubator for 10 days.
(§5) Then, 40 μl of cell proliferation assay reagent (CTG) was added to the 384-well plate, and the plate was shaken to mix well. Then, the 384-well plate was incubated at 37 °C and 5% carbon dioxide in the dark for 30 minutes. The data were read using the Envision multifunctional microplate reader. […] According to the different drug concentrations and their corresponding inhibition rates, the GI50 curve was drawn using GraphPad 8.0 software. The data were analyzed, and the final GI50 value was obtained.

The target in assay [2] is T1, cellular SDMA in HCT116^MTAP Deletion cells (Homo sapiens, UniProt O14744).
T1 construct: in-cell Western of symmetric dimethylarginine
T1 sequence (O14744 whole entry, stated change not applied): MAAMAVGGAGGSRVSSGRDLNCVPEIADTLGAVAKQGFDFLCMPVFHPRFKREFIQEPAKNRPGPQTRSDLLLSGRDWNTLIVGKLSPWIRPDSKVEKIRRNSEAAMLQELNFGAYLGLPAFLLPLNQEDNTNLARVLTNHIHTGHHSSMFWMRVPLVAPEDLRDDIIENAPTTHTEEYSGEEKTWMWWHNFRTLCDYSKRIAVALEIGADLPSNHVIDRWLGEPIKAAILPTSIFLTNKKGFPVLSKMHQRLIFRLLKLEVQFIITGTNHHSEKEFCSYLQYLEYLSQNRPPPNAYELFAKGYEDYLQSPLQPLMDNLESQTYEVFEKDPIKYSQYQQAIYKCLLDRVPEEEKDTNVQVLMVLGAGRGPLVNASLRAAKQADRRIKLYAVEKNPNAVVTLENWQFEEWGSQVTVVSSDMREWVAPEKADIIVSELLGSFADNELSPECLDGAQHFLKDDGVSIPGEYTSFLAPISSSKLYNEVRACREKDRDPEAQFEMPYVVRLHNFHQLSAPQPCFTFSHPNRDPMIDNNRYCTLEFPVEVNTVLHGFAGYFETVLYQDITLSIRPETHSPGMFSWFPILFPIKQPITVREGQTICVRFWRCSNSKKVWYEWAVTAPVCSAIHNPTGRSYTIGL
T1 sequence (Q9BQA1 whole entry partner): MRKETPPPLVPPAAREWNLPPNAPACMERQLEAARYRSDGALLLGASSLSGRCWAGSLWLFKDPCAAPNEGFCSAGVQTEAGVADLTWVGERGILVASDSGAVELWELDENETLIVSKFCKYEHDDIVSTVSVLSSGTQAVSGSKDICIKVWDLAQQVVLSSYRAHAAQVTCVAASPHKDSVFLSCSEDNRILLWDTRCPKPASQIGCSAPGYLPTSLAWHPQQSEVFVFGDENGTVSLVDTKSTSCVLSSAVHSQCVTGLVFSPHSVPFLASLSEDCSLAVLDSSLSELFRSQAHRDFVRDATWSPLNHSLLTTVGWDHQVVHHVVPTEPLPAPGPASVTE
The experiment in a line: In-Cell Western Assay of cellular SDMA, HCT116 MTAP Deletion. The following applies: 96 hours, read-out: SDMA inhibition IC50 in HCT116^MTAP Deletion. An excerpt:
(§6) HCT116^MTAPD Deletion cells were from Horizon; HCT116 cells were from ATCC; RPMI-1640 medium was purchased from ATCC (USA); penicillin-streptomycin was purchased from Gibco (USA); fetal bovine serum was purchased from ExCell; 96-well plate was purchased from Corning (USA); Symmetric Di-Methyl Arginine Motif [sdme-RG]antibody was purchased from CST (USA); IRDye 800CW Goat anti-Rabbit IgG secondary antibody was purchased from LI-COR (USA), and CellTag 700 stain was purchased from LI-COR (USA).
(§7) Compound dissolution: All the compounds were dissolved in dimethyl sulfoxide (DMSO) and then stored. The compounds were stored at −20 °C for long term storage.
The cells were cultured strictly in accordance with ATCC requirements. The cell culture medium (RPMI-1640 medium+10% serum+1% penicillin+streptomycin) was transferred to a 15 mL centrifuge tube and centrifuged at 1000 rpm for 5 min. The supernatant was removed. The cells were resuspended with complete culture medium, inoculated into a culture dish at the required density, and cultured in an incubator at 37 °C, 95% humid air, and 5% carbon dioxide. The culture medium was replenished or the cells were passaged every 2-3 days depending on the cell growth condition.
When the confluency of cells in the culture dish reached about 90%, the cells were washed twice with PBS, and then digested with trypsin. 100 μl of the cells was inoculated into each well of a 96-well plate (800 cells/well). The plate was incubated overnight in a 37 °C and 5% CO2 incubator. 50 μL of 3× final concentration of a compound was added to the cell culture plate. Each compound was subjected to a 3-fold dilution, resulting in 10 concentration gradients, in duplicate, and the final concentration of DMSO was 0.5%. The plate was incubated in a 37 °C and 5% CO2 incubator for 96 hours.
150 μL of 8% paraformaldehyde was added to each well, and the plate was incubated at room temperature for 15 minutes. The supernatant was discarded. The plate was washed with PBS, and 200 μL of freshly prepared 1× Permeabilization buffer was added to each well. The plate was incubated at room temperature for 30 minutes. The supernatant was discarded. 200 μL of 1× Blocking buffer was added to each well, and the plate was incubated at room temperature for 2 hours. The supernatant was discarded. 50 μL of primary antibody (CST, 1× Incubation buffer 1:500 dilution) was added to each well, and the plate was incubated at 4 °C overnight. The supernatant was discarded. 250 μL of 1× Washing buffer was added to each well, and the plate was washed three times. 50 μL of secondary antibody (IRDye 800CW Goat anti-Rabbit IgG and CellTag 700 dye, 1:800 and 1:500 diluted in Incubation buffer) was added to each well, and the plate was incubated at room temperature for 1 hour. The supernatant was discarded. The plate was washed with 1× Washing buffer. Signals were detected using Licor Odyssey CLX. […] According to the different drug concentrations and their corresponding inhibition rates, the IC50 curve was drawn using GraphPad 8.0 software. The data were analyzed, and the final IC50 value was obtained.

Assay [3] deals with cellular SDMA in HCT116 cells. The experiment in a line: In-Cell Western Assay of cellular SDMA, HCT116. Conditions: Homo sapiens, HCT-116, 96 hours, read-out: SDMA inhibition IC50 in HCT116.
Description: as §6, §7
The cells were cultured strictly in accordance with ATCC requirements. The cell culture medium (RPMI-1640 medium+10% serum+1% penicillin+streptomycin) was transferred to a 15 mL centrifuge tube and centrifuged at 1000 rpm for 5 min. The supernatant was removed. The cells were resuspended with complete culture medium, inoculated into a culture dish at the required density, and cultured in an incubator at 37 °C, 95% humid air, and 5% carbon dioxide. […]
150 μL of 8% paraformaldehyde was added to each well, and the plate was incubated at room temperature for 15 minutes. […] Signals were detected using Licor Odyssey CLX. […] The data were analyzed, and the final IC50 value was obtained.

Assay [4] deals with HCT116 cells (HCT116^MTAP WT). In words: Anti-proliferation assay on cells (CTG, 10 days), HCT116 (MTAP WT). The following applies: ratio HCT116 MTAP WT GI50 / HCT116 MTAP Deletion GI50. Here is the method: as §1, §2, §3, §4, §5

Molecules are shown by their SMILES. Where two headings read alike, the source gives them in different places.

The record followed here is US20260345603A1, “PRMT5 INHIBITORS” (Beijing Earthwise Technology Co., Ltd., priority 2022, published 2026).

By GI50 is commonly meant the concentration that inhibits growth by half. A word on the IC50: it is the midpoint of a concentration-inhibition curve.

On to `CN(C(=O)C(=O)Nc1cnc(N)c2c1cnn2C)C1COc2cc(C(F)(F)F)ccc21` (single isomer, unassigned) [Example 112-P1], for which the 50% growth inhibitory concentration (GI50) in assay [1] was at most 10 nM. In addition, the half-inhibitory concentration (IC50) was at most 10 nM in assay [2] and 100 to 1000 nM in assay [3].
In the case of `Cc1ncc(-c2ccc3c(c2)COCC3N(C)C(=O)C(=O)Nc2cnc(N)c3c2cnn3C)s1` (stereo not drawn) [Example 135], the GI50 in assay [1] (Homo sapiens, HCT-116, 240 h) is at most 10 nM. Moreover, the half-maximal inhibitory concentration (IC50) in assay [2] is at most 10 nM.
Turning to `CN(C(=O)C(=O)Nc1cnc(N)c2c1cnn2C)C1COCc2cc(C3=CCOCC3)ccc21` (stereo not drawn) [Example 132-P1], in assay [1], the concentration for 50% growth inhibition (GI50) was at most 10 nM. Also, the IC50 in assay [2] was at most 10 nM.
Regarding `CN(C(=O)C(=O)Nc1cnc(N)c2c1cnn2C)C1COCc2cc(C(F)(F)F)ccc21` (stereo not drawn) [Example 106-P2], in assay [1], the GI50 is at most 10 nM. Besides, the “Selectivity multiple of HCT116^MTAP WT GI50/HCT116^MTAP Deletion GI50” value in assay [4] is 169. The IC50 in assay [2] was at most 10 nM; in assay [3], 10 to 100 nM.
With `CN(C(=O)C(=O)Nc1cnc(N)c2c1cnn2C)C1COc2cc(-c3ccnn3C)ccc21` (stereo not drawn) [Example 192-P1], the IC50 in assay [2] was at most 10 nM.
